Assay results: patent US20210093730A1, “BIOMARKERS FOR ANTIBODY-DRUG CONJUGATE MONOTHERAPY OR COMBINATION THERAPY” (Immunomedics, Inc., priority 2019, published 2021)
“Also recorded” adds a separate entry of the source. Like-named read-outs stand apart in the source and are kept apart here.

How the values were obtained:
[1] = system: metastatic urothelial cancer; conditions: cited from earlier work
[2] = in vivo
[3] = system: non-small cell lung cancer (NSCLC); conditions: cited from earlier work
[4] = system: platinum-resistant urothelial carcinoma; conditions: 6 patients; cited from earlier work
[5] = Immunogenicity: serum antibody responses to sacituzumab govitecan, the IgG and SN-38 by ELISA in mSCLC patients; assay type: in vivo, human; conditions: up to 63 doses / up to 22 months of treatment
Description: Positivity required at least 10% of the tumor cells to be stained, with an intensity scored as 1+ (weak), 2+ (moderate), and 3+ (strong). […] Assay sensitivity is 50 ng/mL for the ADC and the IgG, and 170 ng/mL for anti-SN-38 antibody.

[6] = system: metastatic triple-negative breast cancer (TNBC); test: Phase I/II clinical trial (NCT01631552) of sacituzumab govitecan in relapsed/refractory metastatic TNBC; assay type: in vivo, human
Description: Patients with relapsed/refractory TNBC who had previously failed at at least one prior line of therapy were enrolled in a single-arm, multicenter trial (Bardia et al., 2019, N Engl J Med 380:741-51). The present study reports on 108 patients who had failed at least two prior lines of therapy (median three prior therapies) (Bardia et al., 2019, N Engl J Med 380:741-51). […] Of the 108 patients, 107 were female and 1 was male, with a median age of 55. […] Tumor staging was performed by computed tomography (CT) and MRI at baseline, followed up at 8 week intervals from the start of treatment until disease progression.

[7] = system: metastatic triple-negative breast cancer (TNBC); conditions: second line or later; cited from earlier work
[8] = system: diverse metastatic solid cancers
Description: Patients were refractory/relapsed after standard treatment regimens for metastatic cancer.

[9] = 36 patients with objective response
[10] = any grade, 108 patients, 10 mg/kg
[11] = 48 assessable pts excluding PDC

sacituzumab govitecan
CR (complete response) ([1]; 25 assessable patients): 1 patients | ORR ([1]; 25 assessable patients): 36% | PR (partial response) ([1]; 25 assessable patients): 8 patients | ORR, 1 line of prior chemotherapy ([1]; in vivo): 53.8% | ORR, two or more prior therapies ([1]; in vivo): 16.7% | median PFS ([1]; in vivo): 7.2 months | SN-38 released daily [2]: 50% | clinical benefit rate ([3]; 47 patients): 43% | ORR ([3]; 47 response assessable patients, median three prior therapies): 19% | median OS ([3]; human, in vivo): 9.5 months | median PFS ([3]; human, in vivo): 5.2 months | clinically significant response [4]: 50% | immunogenicity (antibodies to sacituzumab govitecan, hRS7 antibody or SN-38) [5]: not immunogenic; also recorded: No neutralizing antibodies | response rate among patients who had failed previous checkpoint inhibitor therapy ([6]; 10 mg/kg): 44% | median duration of response [6, 9]: 7.7 months | median time to response [6, 9]: 2.0 months | anemia, grade 3 ([6]; 108 patients, 10 mg/kg): 11% | complete responses (CR) ([6]; 108 patients, 10 mg/kg): 2.8% | decreased white blood cell count, grade 4 ([6]; 108 patients, 10 mg/kg): 3% | diarrhea, grade 3 ([6]; 108 patients, 10 mg/kg): 8% | fatigue, grade 3 ([6]; 108 patients, 10 mg/kg): 8% | hyperglycemia, grade 4 ([6]; 108 patients, 10 mg/kg): 1% | median overall survival ([6]; 108 patients, 10 mg/kg): 13.0 months | median progression-free survival ([6]; 108 patients, 10 mg/kg): 5.5 months | nausea, grade 3 ([6]; 108 patients, 10 mg/kg): 6% | neutropenia, grade 3 ([6]; 108 patients, 10 mg/kg): 26% | neutropenia, grade 4 ([6]; 108 patients, 10 mg/kg): 16% | vomiting, grade 3 ([6]; 108 patients, 10 mg/kg): 6% | response rate (CR+PR) ([6]; 108 patients, >=2 prior lines, 10 mg/kg, local assessment): 33.3% | anemia, % of patients [6, 10]: 50% | diarrhea, % of patients [6, 10]: 62% | fatigue, % of patients [6, 10]: 55% | nausea, % of patients [6, 10]: 67% | neutropenia, % of patients [6, 10]: 64% | vomiting, % of patients [6, 10]: 49% | patients with long-term responses of more than 12 months ([6]; as of data cutoff): 6 patients | estimated probability that a patient would exhibit a response ([6]; at 6 months): 59.7% | estimated probability that a patient would exhibit a response ([6]; at 12 months): 27.0% | patients who discontinued treatment due to adverse events ([6]; of 108 patients): Three | median progression-free survival (PFS) [7]: 5.5 months | overall survival (OS) [7]: 13.0 months | response rate [7]: 33.3% | partial response (PR), % of patients [8, 11]: 15% | stable disease (SD), % of patients [8, 11]: 56% | disease response, % of patients ([8]; 48 assessable pts excluding PDC, printed 38 pts): 79% | maximum reduction in target lesions ([8]; CRC case, after 10 months of treatment): 65% | CEA after treatment ([8]; CRC case, decrease from 781 ng/mL): 26.5 ng/mL | reduction in target lesions at first CT assessment ([8]; CRC case, starting dose 8 mg/kg): 37% | total response [PR+SD] ([8]; CRC, 12/18): 67% | PD, patients ([8]; CRC, 18 assessable patients): 6 patients | PR, patients ([8]; CRC, 18 assessable patients): 1 patients | primary target lesion size at first CT ([8]; NSCLC case, 5.6 cm at start, after 6th dose): 3.2 cm | total response [PR+SD] ([8]; NSCLC, 4/5): 80% | PD, patients ([8]; NSCLC, 5 assessable patients): 1 patients | PR, patients ([8]; NSCLC, 5 assessable patients): 1 patients | reduction in target lesions ([8]; SCLC case, 12 mg/kg reduced to 6.8 mg/kg, after two months): 38% | total response [PR+SD] ([8]; SCLC, 2/4): 50% | PD, patients ([8]; SCLC, 4 assessable patients): 2 patients | PR, patients ([8]; SCLC, 4 assessable patients): 2 patients | total response [PR+SD] ([8]; TNBC, 6/8): 75% | PD (progressive disease), patients ([8]; TNBC, 8 assessable patients): 2 patients | PR (partial response), patients ([8]; TNBC, 8 assessable patients): 2 patients | total response [PR+SD] ([8]; all, 34/48): 71% | PD, patients ([8]; all, 48 assessable patients): 14 patients | PR, patients ([8]; all, 48 assessable patients): Seven | PR, patients ([8]; all, 48 assessable patients, listed as hRS7-SN-38): 7 patients
